In ChEMBL document CHEMBL4177563, “The medicinal chemistry of Chikungunya virus” (Bioorg Med Chem, 2017):
In brackets after ≈: the same amount, converted by molar mass.

Key:
Chikungunya virus [1] = test: Antiviral activity against Chikungunya virus 899 infected in African green monkey Vero cells by MTS assay; type: functional, organism-based; settings: Chikungunya virus, 899, Vero
[2] = Cytotoxicity against African green monkey Vero cells assessed as reduction in cell viability after 18 hrs by […]; type: cell-based; settings: chlorocebus sabaeus
Chikungunya virus [3] = test: Antiviral activity against Chikungunya virus infected in African green monkey Vero cells after 72 hrs by MTT dye-based assay; type: functional, organism-based
Chikungunya virus [4] = test: Antiviral activity against Chikungunya virus LR2006 OPY1 infected in BHK cells measured at 14 hrs post infection by luciferase reporter gene assay; type: functional, organism-based
[5] = Cytotoxicity against BHK cells assessed as reduction in cell viability after 48 hrs in presence of ATP by Celltiter-Glo luminescent assay; type: cell-based, Mesocricetus auratus; settings: hamster
[6] = Selectivity index, ratio of CC50 for BHK cells to IC50 for Chikungunya virus LR2006 OPY1; type: toxicity; settings: hamster, read-out: Ratio CC50/IC50
[7] = Selectivity index, ratio of CC50 for African green monkey Vero cells to EC50 for Chikungunya virus 899; type: toxicity; settings: read-out: Ratio CC50/EC50
[8] = Binding affinity to Chikungunya virus […]
Chikungunya virus [9] = test: Antiviral activity against Chikungunya virus infected in African green monkey Vero cells assessed as inhibition of virus-induced cytopathogenic effect measured on day 6 to 7 post infection by MTS dye-based microscopic analysis; type: functional, organism-based; settings: 144 h
[10] = Cytotoxicity against African green monkey Vero cells assessed as reduction in cell viability measured on day 6 to 7 post infection by MTS dye-based microscopic analysis; settings: chlorocebus sabaeus
Chikungunya virus [11] = test: Antiviral activity against Chikungunya virus infected in African green monkey Vero cells; type: functional, organism-based

SMILES | EC50 (Chikungunya virus [1]) [µM] | CC50 at 18 h [2] [µM] | selectivity ratio [7] | other results
O=C1CCN=C(SCc2cc(=O)oc3cc(OS(=O)(=O)c4ccc(F)cc4)ccc23)N1 | 128 | 111 |  | 
Cc1ccc(COc2ccc3c(CSc4ncc(C)c(=O)[nH]4)cc(=O)oc3c2)cc1 | > 48 |  |  | 
Cc1ccc2nc(SCc3cc(=O)oc4cc(OS(=O)(=O)c5ccc(F)cc5)ccc34)[nH]c(=O)c2c1 | 116 | 86.4 |  | 
O=c1cc(-c2ccccc2)oc2cc(O)cc(O)c12 [CHRYSIN] |  |  |  | IC50 (Chikungunya virus [3]): 22.5 to 127 µM
CCSc1ccc2c(c1)N(CCCN1CCN(C)CC1)c1ccccc1S2 [THIETHYLPERAZINE] |  |  |  | IC50 (Chikungunya virus [4]): 15 µM; CC50 at 48 h [5]: 83.1 µM; selectivity ratio [6]: 5.5
O=C1CCN=C(SCc2cc(=O)oc3cc(OS(=O)(=O)c4ccccc4[N+](=O)[O-])ccc23)N1 | 13 | 75.2 | 5.8 | 
O=c1ccnc(SCc2cc(=O)oc3cc(OCc4ccc([N+](=O)[O-])cc4)ccc23)[nH]1 | 4.6 | 13.8 | 3 | 
O=C1C[C@@H](c2ccc(O)cc2)Oc2cc(O)cc(O)c21 [NARINGENIN] |  |  |  | Ki [8]: 0.685 µM
O=c1cc(-c2ccc(O)c(O)c2)oc2cc(O)cc(O)c12 [LUTEOLIN] |  |  |  | IC50 (Chikungunya virus [3]): 22.5 to 127 µM
Cc1ccc2nc(SCc3cc(=O)oc4cc(OS(=O)(=O)c5ccccc5)ccc34)[nH]c(=O)c2c1 | 58 | 126 | 2.2 | 
O=C1CCN=C(SCc2cc(=O)oc3cc(OS(=O)(=O)c4ccc([N+](=O)[O-])cc4)ccc23)N1 | > 205 |  |  | 
Cc1ccc(S(=O)(=O)Oc2ccc3c(CSc4nc5ccccc5c(=O)[nH]4)cc(=O)oc3c2)cc1 | 10.2 | 117 | 11.5 | 
COc1cc(C2Oc3cc([C@H]4Oc5cc(O)cc(O)c5C(=O)[C@@H]4O)ccc3OC2CO)ccc1O (stereo partly specified) [SILIBININ] |  |  |  | IC50 (Chikungunya virus [3]): 22.5 to 127 µM
O=c1cc(CSc2nc3ccccc3c(=O)[nH]2)c2ccc(OS(=O)(=O)c3ccccc3[N+](=O)[O-])cc2o1 | 17.2 | 144 | 8.8 | 
O=C1CCN=C(SCc2cc(=O)oc3cc(OS(=O)(=O)c4ccccc4)ccc23)N1 | 57.4 |  |  | 
C=C(C)[C@@]1(O)[C@@H]2OC3(c4ccccc4)O[C@H]1[C@@H](C)[C@]1(O3)C3=CC(=C(Cl)Cl)[C@H](OC(=O)c4ccccc4)[C@@]3(O)[C@H](OC(C)=O)[C@@]3(COC(C)=O)O[C@H]3[C@@H]21 |  |  |  | EC50 (Chikungunya virus [9]): 1.5 µM; CC50 [10]: 35 µM
O=c1cc(CSc2nc3ccccc3c(=O)[nH]2)c2ccc(OS(=O)(=O)c3ccc(F)cc3)cc2o1 | 18.4 | 30 | 1.6 | 
CCN(CC)C(C)CN1c2ccccc2Sc2ccccc21 (stereo unspecified) [ETHOPROPAZINE] |  |  |  | IC50 (Chikungunya virus [4]): 16 µM; CC50 at 48 h [5]: 167 µM; selectivity ratio [6]: 10.4
C=C[C@H]1CN2CC[C@H]1C[C@H]2[C@H](O)c1ccnc2ccc(OC)cc12 [QUININE] |  |  |  | IC50 (Chikungunya virus [11]): 0.1 µg/mL (≈ 0.308 µM)
Cc1ccc(COc2ccc3c(CSc4nc5ccccc5c(=O)[nH]4)cc(=O)oc3c2)cc1 | > 2.19 | 102 |  | 
O=c1cc(CSc2nc3ccccc3c(=O)[nH]2)c2ccc(OS(=O)(=O)c3ccccc3)cc2o1 | 19.1 | 178 | 9.3 | 
CN(C)CCCN1c2ccccc2Sc2ccc(Cl)cc21 [CHLORPROMAZINE] |  |  |  | IC50 (Chikungunya virus [4]): 15.7 µM; CC50 at 48 h [5]: 67.3 µM; selectivity ratio [6]: 4.5
